According to patent US7230018B2, “Substituted propane-1,3-diamine derivatives and the pharmaceutical use thereof” (Gruenenthal GmbH, priority 2001, dated 2007):

system: phenylquinone-induced writhing in the mouse; experiment: phenylquinone-induced writhing test in the mouse; type: in vivo; conditions: male NMRI mice, 10 mg/kg intravenously, phenylquinone intraperitoneally 10 minutes after test substance, writhing counted 5 to 20 minutes after phenylquinone, hydrochloride
Method: Testing of Analgesia in the Writhing Test in the Mouse
The investigation for analgesic activity was carried out in the phenylquinone-induced writhing in the mouse (modified by I. C. Hendershot and J. Forsaith (1959) J. Pharmacol. Exp. Ther. 125, 237-240). Male NMRI mice weighing 25 to 30 g were employed for this. Groups of 10 animals per substance dose received 0.3 ml/mouse of a 0.02% aqueous solution of phenylquinone (phenylbenzoquinone, Sigma, Deisenhofen; preparation of the solution with the addition of 5% ethanol and storage in a water bath at 45° C.) administered intraperitoneally 10 minutes after intravenous administration of the test substances. The animals were placed individually in observation cages. The number of pain-induced stretching movements (so-called writhing reactions=straightening of the body with stretching of the hind extremities) was counted by means of a push-button counter 5 to 20 minutes after the administration of phenylquinone. Animals which received only physiological saline solution were also run as a control. All the substances were tested in the standard dosage of 10 mg/kg. The percentage inhibition (% inhibition) of the writhing reaction by a substance was calculated according to the following formula: […]

Compound	% Inhibition of the writhing reaction (dosage in mg/kg intravenously)
CN(C)C(c1cccnc1)C1CCCCC1NC(=O)c1ccccc1.Cl (stereo not drawn) [Example 1, (syn,syn)-N-[2-(dimethylaminopyridin-3-ylmethyl)cyclohexyl]benzamide hydrochloride]	54 (10) %
CN(C)C(c1cccnc1)C1CCCCC1NC(=O)c1ccccc1F.Cl (stereo not drawn) [Example 2, (syn,syn)-N-[2-(dimethylaminopyridin-3-ylmethyl)cyclohexyl]-2-fluorobenzamide hydrochloride]	67 (10) %
CN(C)C(c1cccnc1)C1CCCCC1NC(=O)c1ccccc1Cl.Cl (stereo not drawn) [Example 3, (syn,syn)-2-chloro-N-[2-(dimethylaminopyridin-3-ylmethyl)cyclohexyl]-benzamide hydrochloride]	85 (10) %
Cc1ccccc1C(=O)NC1CCCCC1C(c1cccnc1)N(C)C.Cl (stereo not drawn) [Example 4, (syn,syn)-N-[2-(dimethylaminopyridin-3-ylmethyl)cyclohexyl]-2-methylbenzamide hydrochloride]	34 (10) %
CN(C)C(c1cccnc1)C1CCCCC1NC(=O)c1ccccc1.Cl (stereo not drawn) [Example 5, (anti,anti)-N-[2-(dimethylaminopyridin-3-ylmethyl)cyclohexyl]-benzamide hydrochloride]	49 (10) %
CN(C)C(c1cccnc1)C1CCCCC1NC(=O)c1ccccc1F.Cl (stereo not drawn) [Example 6, (anti,anti)-N-[2-(dimethylaminopyridin-3-ylmethyl)cyclohexyl]-2-fluorobenzamide hydrochloride]	62 (10) %
CN(C)C(c1cccnc1)C1CCCCC1NC(=O)c1ccccc1Cl.Cl (stereo not drawn) [Example 7, (anti,anti)-2-chloro-N-[2-(dimethylaminopyridin-3-ylmethyl)cyclohexyl]benzamide hydrochloride]	56 (10) %
Cc1ccccc1C(=O)NC1CCCCC1C(c1cccnc1)N(C)C.Cl (stereo not drawn) [Example 8, (anti,anti)-N-[2-(dimethylaminopyridin-3-ylmethyl)cyclohexyl]-2-methylbenzamide hydrochloride]	40 (10) %
CC(=O)NC1CCCCC1C(c1cccnc1)N(C)C.Cl (stereo not drawn) [Example 9, (syn,syn)-N-[2-(dimethylaminopyridin-3-ylmethyl)cyclohexyl]acetamide hydrochloride]	75 (10) %
CC(=O)NC1CCCCC1C(c1cccnc1)N(C)C.Cl (stereo not drawn) [Example 10, (anti,anti)-N-[2-(dimethylaminopyridin-3-ylmethyl)cyclohexyl]acetamide hydrochloride]	59 (10) %
